The results in this text go back to ChEMBL document CHEMBL1137511, “Identification of a series of novel derivatives as potent HCV inhibitors by a ligand-based virtual screening optimized procedure” (Bioorg Med Chem, 2007).

The experiment can be described thus: Inhibition of HCV genotype 1 polymerase. Also noted: species or system Hepacivirus hominis.

Compound `CCCCNn1c(=O)c(C2=NS(=O)(=O)c3ccccc3N2)c(O)c2ccccc21` registered an IC50 of 951 nM. `O=c1c(C2=NS(=O)(=O)c3ccccc3N2)c(O)c2ccccc2n1NCc1ccoc1`: half-maximal inhibition (IC50) required 1550 nM. The result for `O=c1c(C2=NS(=O)(=O)c3ccccc3N2)c(O)c2ccccc2n1NCc1cccs1` reads 2330 nM; that for `CCC(CC)Nn1c(=O)c(C2=NS(=O)(=O)c3ccccc3N2)c(O)c2ccccc21`, 2460 nM.

In turn, `CC(Nn1c(=O)c(C2=NS(=O)(=O)c3ccccc3N2)c(O)c2ccccc21)c1ccccc1` (stereo not given) returned an IC50 of 16500 nM.

Regarding `Cc1cccc(CNn2c(=O)c(C3=NS(=O)(=O)c4ccccc4N3)c(O)c3ccccc32)c1`, the 50% inhibitory concentration (IC50) worked out at 8210 nM. The result for `O=c1c(C2=NS(=O)(=O)c3ccccc3N2)c(O)c2ccccc2n1NCc1ccc(Br)cc1` reads 10400 nM; that for `O=c1c(C2=NS(=O)(=O)c3ccccc3N2)c(O)c2ccccc2n1NCc1nccs1`, 35800 nM; that for `CC(C)CNn1c(=O)c(C2=NS(=O)(=O)c3ccccc3N2)c(O)c2ccccc21`, 941 nM.

`Cc1ccsc1CNn1c(=O)c(C2=NS(=O)(=O)c3ccccc3N2)c(O)c2ccccc21` registered a half-maximal inhibitory concentration (IC50) of 15000 nM. In the case of `O=c1c(C2=NS(=O)(=O)c3ccccc3N2)c(O)c2ccccc2n1NCC1CCCCC1` it was 2530 nM; in that of `CC(C)(C)CCNn1c(=O)c(C2=NS(=O)(=O)c3ccccc3N2)c(O)c2ccccc21`, 411 nM. With `CCCC(Nn1c(=O)c(C2=NS(=O)(=O)c3ccccc3N2)c(O)c2ccccc21)C(C)C` (stereo not given), the midpoint of inhibition, the IC50, lay at 6400 nM. The result for `CCCC(CC)Nn1c(=O)c(C2=NS(=O)(=O)c3ccccc3N2)c(O)c2ccccc21` (stereo not given) reads 1890 nM. The compound `CC(C)Nn1c(=O)c(C2=NS(=O)(=O)c3ccccc3N2)c(O)c2ccccc21` showed an IC50 of 6350 nM.

The compound `Cc1ccccc1CNn1c(=O)c(C2=NS(=O)(=O)c3ccccc3N2)c(O)c2ccccc21` had an IC50 of 6120 nM. Take `O=c1c(C2=NS(=O)(=O)c3ccccc3N2)c(O)c2ccccc2n1NCC1CC1`: half-maximal inhibition (IC50) was put at 285 nM. The result for `O=c1c(C2=NS(=O)(=O)c3ccccc3N2)c(O)c2ccccc2n1NCc1ccco1` reads 3260 nM; that for `O=c1c(C2=NS(=O)(=O)c3ccccc3N2)c(O)c2ccccc2n1NCC1CCC1`, 278 nM. In the case of `CCCCCNn1c(=O)c(C2=NS(=O)(=O)c3ccccc3N2)c(O)c2ccccc21` it was 928 nM. In turn, `O=c1c(C2=NS(=O)(=O)c3ccccc3N2)c(O)c2ccccc2n1NCc1ccccc1Br` showed an IC50 of 6720 nM. `CC(C)CCNn1c(=O)c(C2=NS(=O)(=O)c3ccccc3N2)c(O)c2ccccc21` showed an IC50 of 629 nM. With `CCCC(CCC)Nn1c(=O)c(C2=NS(=O)(=O)c3ccccc3N2)c(O)c2ccccc21`, the 50% inhibitory concentration (IC50) was 2240 nM.

As to `O=c1c(C2=NS(=O)(=O)c3ccccc3N2)c(O)c2ccccc2n1NCc1cccc(Br)c1`, the IC50 came to 1040 nM. The result for `O=c1c(C2=NS(=O)(=O)c3ccccc3N2)c(O)c2ccccc2n1NCc1ccc(Cl)s1` reads 4780 nM.

As a reminder, the IC50 is the point on the concentration scale where inhibition reaches its midpoint. The low end stands for higher potency, the high end for lower potency.
